# Experiments:
# Adenosine receptor A1 = biological target: T1, Adenosine receptor A1 (Rattus norvegicus, UniProt P25099); experiment: Antagonism of adenosine A1 receptor assessed from the ability to inhibit binding of [3H]cyclohexyladenosine to rat cerebral cortical membranes; format: cell membranes, Membrane
# T1 sequence (P25099 whole entry): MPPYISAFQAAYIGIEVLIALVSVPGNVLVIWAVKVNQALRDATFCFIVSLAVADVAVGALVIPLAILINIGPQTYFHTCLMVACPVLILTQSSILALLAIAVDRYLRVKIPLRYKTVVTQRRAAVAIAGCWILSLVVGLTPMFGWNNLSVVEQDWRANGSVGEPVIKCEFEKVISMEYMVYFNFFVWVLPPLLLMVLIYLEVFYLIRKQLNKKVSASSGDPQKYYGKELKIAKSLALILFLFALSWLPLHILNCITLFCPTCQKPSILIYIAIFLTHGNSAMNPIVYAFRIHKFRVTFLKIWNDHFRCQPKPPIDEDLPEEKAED
# Cavia porcellus = organism: Cavia porcellus; experiment: Ability to inhibit 2-chloroadenosine (15 uM)-elicited accumulations of cyclic AMP in guinea pig cerebral cortical slices
Compound,IC50 (Adenosine receptor A1),IC50 (Cavia porcellus)
CCCn1c(=O)c2nc[nH]c2n(CCC)c1=O,1.5 µM,8.1 µM
O=c1c2[nH]cnc2n(Cc2ccccc2)c(=O)n1Cc1ccccc1,7 µM,35 µM
CCCCCN1C(=O)C(C)C(=O)N2N=CSC12 (configuration not stated),120 µM,> 250 µM
CCC1C(=O)N2C=CSC2N(CC)C1=O (configuration not stated),120 µM,150 µM
CCN1C(=O)C(Cc2ccccc2)C(=O)N2N=CSC12 (configuration not stated),58 µM,> 200 µM
CCC1C(=O)N(CC(C)C)C2Sc3ccccc3N2C1=O (configuration not stated),41 µM,15 µM
O=C1C(Cc2ccccc2)C(=O)N(CC2CC2)C2SC=CN12 (configuration not stated),160 µM,200 µM
CCC1C(=O)N2C=Cc3ccccc3C2N(CC)C1=O (configuration not stated),27 µM,30 µM
CCC1C(=O)N2C=CSC2N(Cc2cc(OC)cc(OC)c2)C1=O (configuration not stated),95 µM,250 µM
CCN1C(=O)CC(=O)N2N=CSC12 (configuration not stated),110 µM,> 250 µM
CCC1C(=O)SC2N(C)C=CN2C1=O (configuration not stated),290 µM,> 250 µM
CCN1C(=O)C(C)C(=O)N2N=CSC12 (configuration not stated),60 µM,> 250 µM
CCC1C(=O)N2C=CSC2N(Cc2ccccc2)C1=O (configuration not stated),160 µM,150 µM
CCC1C(=O)N(CC)C2SC(C)=NN2C1=O (configuration not stated),500 µM,> 250 µM
CCCC1C(=O)N2C=CSC2N(CCC)C1=O (configuration not stated),54 µM,250 µM
CCCC1C(=O)N(CC(C)C)C2Sc3ccccc3N2C1=O (configuration not stated),30 µM,20 µM
CCN1C(=O)C(Cc2ccc(Cl)cc2)C(=O)N2N=CSC12 (configuration not stated),45 µM,> 250 µM
CCC1C(=O)N(CC)C2SC=NN2C1=O (configuration not stated),72 µM,> 250 µM
CCC1C(=O)N(CC)C2SC(c3ccccc3)=NN2C1=O (configuration not stated),80 µM,250 µM
CCC1C(=O)N2C=CSC2N(CC2CC2)C1=O (configuration not stated),100 µM,120 µM
CCCC1C(=O)N(C)C2N(C)C=NN2C1=O (configuration not stated),> 250 µM,> 250 µM
CCn1c(=O)c2nc[nH]c2n(CC)c1=O,6.4 µM,12 µM
Cn1c(=O)c2nc(-c3ccccc3)[nH]c2n(C)c1=O [8-PHENYL THEOPHYLLINE],,1.65 µM
Cn1c(=O)c2c(ncn2C)n(C)c1=O [CAFFEINE],,150 µM
Cn1c(=O)c2nc[nH]c2n(C)c1=O [THEOPHYLLINE],,42 µM
